Data: patent US8410144B2, “Substituted indolo-pyridinone compounds” (ArQule, Inc., priority 2009, dated 2013)

What was measured:
DLD-1 = assay: MTS assay, DLD-1 cells; assay type: cell-based; details: Homo sapiens, 72 hours, read-out: DLD-1, MTS cell kill % inhibition
How it was run: (§1)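 First, seed 3000 cells per well in low-serum (1% FBS) DMEM and culture 18 h. Next, add compounds prepared at 300× in DMSO and diluted 1:40 in DMEM; incubate 72 h. Finally, add MTS/PMS for 4 h and measure absorbance at 492 nm.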

KATO III = assay: MTS assay, KATO III cells; assay type: cell-based; details: Homo sapiens, 72 hours, read-out: KATO III, MTS cell kill % inhibition
How it was run: as §1

MDA-MB-231 = assay: MTS assay, MDA-MB-231 cells; assay type: cell-based; details: Homo sapiens, 72 hours, read-out: MDA-MB-231, MTS cell kill % inhibition
How it was run: as §1

NCI-H1299 = assay: MTS assay, NCI-H1299 cells; assay type: cell-based; details: Homo sapiens, 72 hours, read-out: NCI-H1299, MTS cell kill % inhibition
How it was run: as §1

IGF-1R = IGF-1R (Homo sapiens, UniProt P08069); assay: IGFR1 activity assay (ELISA); assay type: biochemical; details: read-out: IGF-1R, PCT INH (30 μM), ELISA
IGF-1R, sequence (P08069 31-1367): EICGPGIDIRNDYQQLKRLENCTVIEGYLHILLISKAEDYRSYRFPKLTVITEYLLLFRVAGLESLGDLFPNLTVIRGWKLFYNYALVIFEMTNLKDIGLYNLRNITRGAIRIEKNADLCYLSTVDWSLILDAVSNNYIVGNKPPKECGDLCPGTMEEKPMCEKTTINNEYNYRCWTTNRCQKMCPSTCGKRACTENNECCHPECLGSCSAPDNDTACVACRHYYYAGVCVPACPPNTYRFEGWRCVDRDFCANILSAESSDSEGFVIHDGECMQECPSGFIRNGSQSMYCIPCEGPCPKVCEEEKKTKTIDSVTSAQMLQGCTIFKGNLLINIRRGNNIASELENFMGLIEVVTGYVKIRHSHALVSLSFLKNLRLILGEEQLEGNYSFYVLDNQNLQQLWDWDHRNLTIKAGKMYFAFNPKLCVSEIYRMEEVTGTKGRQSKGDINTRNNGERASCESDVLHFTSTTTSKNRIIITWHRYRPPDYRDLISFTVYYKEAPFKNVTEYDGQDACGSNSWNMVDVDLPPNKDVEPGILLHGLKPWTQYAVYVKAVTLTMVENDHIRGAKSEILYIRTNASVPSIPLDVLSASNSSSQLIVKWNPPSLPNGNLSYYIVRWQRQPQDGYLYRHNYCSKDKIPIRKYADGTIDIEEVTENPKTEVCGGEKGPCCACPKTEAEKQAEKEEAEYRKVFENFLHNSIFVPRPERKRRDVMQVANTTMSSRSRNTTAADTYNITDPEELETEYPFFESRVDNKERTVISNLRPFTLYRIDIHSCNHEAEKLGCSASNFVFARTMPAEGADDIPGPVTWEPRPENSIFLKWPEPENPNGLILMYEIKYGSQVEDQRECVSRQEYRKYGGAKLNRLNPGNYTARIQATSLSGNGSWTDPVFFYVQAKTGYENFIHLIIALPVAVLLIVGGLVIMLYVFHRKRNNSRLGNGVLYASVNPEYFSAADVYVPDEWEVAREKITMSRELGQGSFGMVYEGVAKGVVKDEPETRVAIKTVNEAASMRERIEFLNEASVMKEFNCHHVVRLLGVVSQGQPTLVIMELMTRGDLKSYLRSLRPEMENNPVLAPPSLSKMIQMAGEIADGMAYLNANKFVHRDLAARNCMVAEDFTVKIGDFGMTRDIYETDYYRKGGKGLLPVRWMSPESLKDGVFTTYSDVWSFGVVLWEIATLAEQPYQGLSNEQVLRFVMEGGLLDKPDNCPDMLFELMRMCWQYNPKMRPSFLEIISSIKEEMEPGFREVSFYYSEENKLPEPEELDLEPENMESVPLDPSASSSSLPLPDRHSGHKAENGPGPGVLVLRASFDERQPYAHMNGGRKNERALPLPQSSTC
How it was run: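 IGF1R (0.33 ng/μL final) phosphorylating Pyk-2 (0.05 ng/μL final) in buffer with 12.5 μM ATP, 10 mM MgCl2, 1 h room temperature. Product captured on streptavidin plates, detected with anti-phosphotyrosine and alkaline phosphatase secondary antibody, Attophos fluorescent readout.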

SMILES	inhibition at 10 µM (DLD-1)	inhibition at 10 µM (KATO III)	inhibition at 10 µM (MDA-MB-231)	inhibition at 10 µM (NCI-H1299)	inhibition at 30 µM (IGF-1R)	melting point
O=C(NCCCN1CCOCC1)c1ccc2[nH]c(-c3ccc[nH]c3=O)c(Br)c2c1 [Compound 56, 3-bromo-N-(3-morpholin-4-ylpropyl)-2-(2-oxo-1,2-dihydropyridin-3-yl)-1H-indole-5-carboxamide]	< 50%	< 50%	< 50%	< 50%	80 to 100%	138 to 142 °C
CN(C)CCCNC(=O)c1ccc2[nH]c(-c3ccc[nH]c3=O)c(-c3ccccc3)c2c1 [Compound 30, N-[3-(dimethylamino)propyl]-2-(2-oxo-1,2-dihydropyridin-3-yl)-3-phenyl-1H-indole-5-carboxamide]	80 to 100%	80 to 100%	80 to 100%	80 to 100%	80 to 100%	143 to 145 °C
CN(C)CCCN(C)C(=O)c1ccc2[nH]c(-c3ccc[nH]c3=O)c(-c3ccccc3)c2c1 [Compound 27, N-[3-(dimethylamino)propyl]-N-methyl-2-(2-oxo-1,2-dihydropyridin-3-yl)-3-phenyl-1H-indole-5-carboxamide]	50 to 79%	80 to 100%	50 to 79%	50 to 79%	80 to 100%	125 to 128 °C
O=C(NCc1ccccn1)c1ccc2[nH]c(-c3ccc[nH]c3=O)c(-c3ccc(-c4ccccc4)cc3)c2c1 [Compound 42, 3-biphenyl-4-yl-2-(2-oxo-1,2-dihydropyridin-3-yl)-N-(pyridin-2-ylmethyl)-1H-indole-5-carboxamide]	80 to 100%	80 to 100%	80 to 100%	80 to 100%	< 50%	123 to 127 °C
Cc1ccc(-c2c(-c3ccc[nH]c3=O)[nH]c3ccc(C(=O)NCCCN4CCOCC4)cc23)cc1 [Compound 72, 3-(4-methylphenyl)-N-(3-morpholin-4-ylpropyl)-2-(2-oxo-1,2-dihydropyridin-3-yl)-1H-indole-5-carboxamide]	50 to 79%	80 to 100%	< 50%	80 to 100%	80 to 100%	152 to 154 °C
O=C(Nc1cccc(F)c1)c1ccc2[nH]c(-c3ccc[nH]c3=O)c(-c3ccccc3)c2c1 [Compound 13, N-(3-fluorophenyl)-2-(2-oxo-1,2-dihydropyridin-3-yl)-3-phenyl-1H-indole-5-carboxamide]	80 to 100%	80 to 100%	50 to 79%	80 to 100%	50 to 79%	176 to 182 °C
Cc1cc(C)cc(-c2c(-c3ccc[nH]c3=O)[nH]c3ccc(C(=O)NCCCN4CCOCC4)cc23)c1 [Compound 70, 3-(3,5-dimethylphenyl)-N-(3-morpholin-4-ylpropyl)-2-(2-oxo-1,2-dihydropyridin-3-yl)-1H-indole-5-carboxamide]	80 to 100%	80 to 100%	80 to 100%	80 to 100%	80 to 100%	115 to 120 °C
COc1ccc(NC(=O)c2ccc3[nH]c(-c4ccc[nH]c4=O)c(-c4ccccc4)c3c2)cc1 [Compound 29, N-(4-methoxyphenyl)-2-(2-oxo-1,2-dihydropyridin-3-yl)-3-phenyl-1H-indole-5-carboxamide]	50 to 79%	80 to 100%	< 50%	80 to 100%	80 to 100%	279 to 283 °C
O=C(c1ccc2[nH]c(-c3ccc[nH]c3=O)c(-c3ccccc3)c2c1)N1CCCCC1 [Compound 17, 3-[3-phenyl-5-(piperidin-1-ylcarbonyl)-1H-indol-2-yl]pyridin-2(1H)-one]	50 to 79%	80 to 100%	< 50%	80 to 100%	80 to 100%	182 to 186 °C
Cc1cccc(-c2c(-c3ccc[nH]c3=O)[nH]c3ccc(C(=O)NCCCN4CCOCC4)cc23)c1 [Compound 78, 3-(3-methylphenyl)-N-(3-morpholin-4-ylpropyl)-2-(2-oxo-1,2-dihydropyridin-3-yl)-1H-indole-5-carboxamide]	50 to 79%	< 50%	< 50%	50 to 79%	80 to 100%	120 to 122 °C
Cc1ccccc1N(C)C(=O)c1ccc2[nH]c(-c3ccc[nH]c3=O)c(-c3ccccc3)c2c1 [Compound 16, N-methyl-N-(2-methylphenyl)-2-(2-oxo-1,2-dihydropyridin-3-yl)-3-phenyl-1H-indole-5-carboxamide]	50 to 79%	80 to 100%	< 50%	50 to 79%	80 to 100%	216 to 220 °C
O=C(Nc1ccccc1Cl)c1ccc2[nH]c(-c3ccc[nH]c3=O)c(-c3ccccc3)c2c1 [Compound 12, N-(2-chlorophenyl)-2-(2-oxo-1,2-dihydropyridin-3-yl)-3-phenyl-1H-indole-5-carboxamide]	80 to 100%	80 to 100%	50 to 79%	80 to 100%	< 50%	> 300 °C
O=C(Nc1cccc(Cl)c1)c1ccc2[nH]c(-c3ccc[nH]c3=O)c(-c3ccccc3)c2c1 [Compound 22, N-(3-chlorophenyl)-2-(2-oxo-1,2-dihydropyridin-3-yl)-3-phenyl-1H-indole-5-carboxamide]	80 to 100%	80 to 100%	50 to 79%	50 to 79%	50 to 79%	244 to 250 °C
CN1CCCC1CCNC(=O)c1ccc2[nH]c(-c3ccc[nH]c3=O)c(-c3ccccc3)c2c1 (stereo not drawn) [Compound 5, N-[2-(1-methylpyrrolidin-2-yl)ethyl]-2-(2-oxo-1,2-dihydropyridin-3-yl)-3-phenyl-1H-indole-5-carboxamide]	50 to 79%	80 to 100%	50 to 79%	80 to 100%	< 50%	185 to 188 °C
CC(C)Oc1ccc(-c2c(-c3ccc[nH]c3=O)[nH]c3ccc(C(=O)NCCCN4CCOCC4)cc23)cc1 [Compound 66, 3-(4-isopropoxyphenyl)-N-(3-morpholin-4-ylpropyl)-2-(2-oxo-1,2-dihydropyridin-3-yl)-1H-indole-5-carboxamide]	50 to 79%	80 to 100%	80 to 100%	80 to 100%	80 to 100%	140 to 143 °C
CN(CCc1ccccc1)C(=O)c1ccc2[nH]c(-c3ccc[nH]c3=O)c(-c3ccc(-c4ccccc4)cc3)c2c1 [Compound 43, 3-biphenyl-4-yl-N-methyl-2-(2-oxo-1,2-dihydropyridin-3-yl)-N-(2-phenylethyl)-1H-indole-5-carboxamide]	50 to 79%	50 to 79%	< 50%	50 to 79%	< 50%	136 to 141 °C
CCOc1ccc(-c2c(-c3ccc[nH]c3=O)[nH]c3ccc(C(=O)NCCCN4CCOCC4)cc23)cc1 [Compound 79, 3-(4-ethoxyphenyl)-N-(3-morpholin-4-ylpropyl)-2-(2-oxo-1,2-dihydropyridin-3-yl)-1H-indole-5-carboxamide]	80 to 100%	80 to 100%	80 to 100%	80 to 100%	80 to 100%	143 to 145 °C
O=C(NCCCN1CCOCC1)c1ccc2[nH]c(-c3ccc[nH]c3=O)c(-c3ccc(Oc4ccccc4)cc3)c2c1 [Compound 57, N-(3-morpholin-4-ylpropyl)-2-(2-oxo-1,2-dihydropyridin-3-yl)-3-(4-phenoxyphenyl)-1H-indole-5-carboxamide]	80 to 100%	80 to 100%	80 to 100%	80 to 100%	80 to 100%	121 to 123 °C
O=C(c1ccc2[nH]c(-c3ccc[nH]c3=O)c(-c3ccc(-c4ccccc4)cc3)c2c1)N1CCCCC1 [Compound 38, 3-[3-biphenyl-4-yl-5-(piperidin-1-ylcarbonyl)-1H-indol-2-yl]pyridin-2(1H)-one]	80 to 100%	80 to 100%	80 to 100%	80 to 100%	< 50%	170 to 182 °C
CCN(CC)CCCNC(=O)c1ccc2[nH]c(-c3ccc[nH]c3=O)c(-c3ccccc3)c2c1 [Compound 2, N-[3-(diethylamino)propyl]-2-(2-oxo-1,2-dihydropyridin-3-yl)-3-phenyl-1H-indole-5-carboxamide]	50 to 79%	80 to 100%	50 to 79%	50 to 79%	80 to 100%	190 to 198 °C
